For assay [1], the target named is T1, KRas-mediated phosphorylation of ERK in A549 cells (Homo sapiens, UniProt P01116, G12S).
T1 construct: pERK HTRF read-out
In words: Inhibition of KRas-mediated phosphorylation of ERK (HTRF), A549 cells. In kind it is cell-based. As to conditions: HTRF pERK, 3 h incubation. On the technique in general: In TR-FRET formats the signal depends on donor and acceptor labels being close together.

Assay [2] concerns the target T2, KRas-mediated phosphorylation of ERK in H358 cells (Homo sapiens, UniProt P01116, G12C).
T2 construct: pERK HTRF read-out
In words: Inhibition of KRas-mediated phosphorylation of ERK (HTRF), H358 cells. The note with it: HTRF pERK, 3 h incubation. Format: cell-based.

A further assay has as its target T3, KRas WT (Homo sapiens, UniProt P01116).
T3 construct: Biotinylated KRas (corresponding to amino acids 1-169, produced at Accelegan Inc.); biotin (biotinylated); purchased Accelegan Inc
As to the kind of experiment: KRas binding assay, TR-FRET displacement of Cy5 labelled tracer. As to conditions: 60-minute incubation at room temperature, 1% DMSO, pH 7.5. In a few lines: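 Truncated KRas (1-169), biotinylated, Tb-streptavidin donor; one-hour room-temperature incubation; IC50 by four-parameter curve fitting.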

For another assay, the target named is T4, KRas G12S (Homo sapiens, UniProt P01116, G12S).
T4 construct: Biotinylated KRas (corresponding to amino acids 1-169, produced at Accelegan Inc.); biotin (biotinylated); purchased Accelegan Inc
The assay is described as above. The note with it: 60-minute incubation at room temperature, 1% DMSO, pH 7.5. In a few lines:
(§1)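 KRas aa 1-169, biotinylated; Tb-streptavidin donor; 1% DMSO final. Buffer: HEPES 50 mM (pH 7.5), MgCl2 5 mM, DTT 1 mM, Tween-20 0.005%. 60 min, RT. IC50 from 4-parameter fit of POC.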

For a further assay, the target named is T5, KRas G12C (Homo sapiens, UniProt P01116, G12C).
T5 construct: Biotinylated KRas (corresponding to amino acids 1-169, produced at Accelegan Inc.); biotin (biotinylated); purchased Accelegan Inc
The assay is described as above. The note with it: 60-minute incubation at room temperature, 1% DMSO, pH 7.5. In a few lines: as §1

Assay [3] concerns the target T6, KRas-mediated phosphorylation of ERK in MKN1 cells (Homo sapiens, UniProt P01116).
T6 construct: pERK HTRF read-out
As to the kind of experiment: Inhibition of KRas-mediated phosphorylation of ERK (HTRF), MKN1 cells. Format: cell-based. As to conditions: MKN1 cells (KRas WT); HTRF pERK; 3 h incubation. The procedure:
Inhibition of KRas Phosphorylation of ERK (HTRF) by Exemplary Compounds of Formula (Ia) or (Ib)
Cisbio HTRF Advanced pERK Assay Catalog #64AERPEH • Cells: MKN1, PSN1 • Procedure: • 1. Day 1: Seed 6,000 cells/well −25 μl/well in 384-well white solid bottom plate; RPM1_10% FBS. Incubate overnight at 37 °C/5% CO2. • 2.

T2 sequence (P01116 1-188 isoform P01116-2 G12C): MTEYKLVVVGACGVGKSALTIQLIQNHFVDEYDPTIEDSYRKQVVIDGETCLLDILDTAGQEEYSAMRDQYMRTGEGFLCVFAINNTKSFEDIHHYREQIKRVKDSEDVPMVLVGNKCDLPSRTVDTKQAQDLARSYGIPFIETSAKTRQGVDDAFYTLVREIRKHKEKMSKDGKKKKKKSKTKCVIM
T5 sequence (P01116 1-169 isoform P01116-2 G12C): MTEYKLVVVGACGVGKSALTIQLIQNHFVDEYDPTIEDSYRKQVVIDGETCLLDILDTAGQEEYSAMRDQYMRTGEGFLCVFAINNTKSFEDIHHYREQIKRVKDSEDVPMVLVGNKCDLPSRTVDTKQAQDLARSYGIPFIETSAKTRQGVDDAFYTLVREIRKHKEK
T3 sequence (P01116 1-169 isoform P01116-2): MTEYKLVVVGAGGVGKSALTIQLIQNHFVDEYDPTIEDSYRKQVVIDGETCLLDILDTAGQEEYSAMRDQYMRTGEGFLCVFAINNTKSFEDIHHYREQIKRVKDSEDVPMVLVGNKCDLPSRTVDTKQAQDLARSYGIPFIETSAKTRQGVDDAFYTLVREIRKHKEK
T1 sequence (P01116 1-188 isoform P01116-2 G12S): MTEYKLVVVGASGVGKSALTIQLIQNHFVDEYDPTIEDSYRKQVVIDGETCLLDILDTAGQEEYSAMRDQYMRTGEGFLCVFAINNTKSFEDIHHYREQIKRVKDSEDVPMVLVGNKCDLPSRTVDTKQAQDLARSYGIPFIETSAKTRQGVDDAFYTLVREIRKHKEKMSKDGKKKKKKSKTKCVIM
T4 sequence (P01116 1-169 isoform P01116-2 G12S): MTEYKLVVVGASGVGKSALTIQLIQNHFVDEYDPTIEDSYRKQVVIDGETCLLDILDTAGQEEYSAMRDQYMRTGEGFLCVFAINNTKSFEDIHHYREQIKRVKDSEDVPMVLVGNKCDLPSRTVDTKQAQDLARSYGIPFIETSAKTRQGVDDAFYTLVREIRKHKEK
T6 sequence (P01116 1-188 isoform P01116-2): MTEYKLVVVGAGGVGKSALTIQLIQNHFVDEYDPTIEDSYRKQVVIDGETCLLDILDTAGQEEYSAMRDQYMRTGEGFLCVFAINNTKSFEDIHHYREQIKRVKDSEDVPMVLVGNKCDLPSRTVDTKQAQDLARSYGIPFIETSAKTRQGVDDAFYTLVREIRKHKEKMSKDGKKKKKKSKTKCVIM

For the molecule `Cc1ccn(C(=O)C2CCCN(c3nc(OC[C@@]45CCCN4C[C@H](F)C5)nc4c(F)c(-c5ccc(F)c6sc(N)c(C#N)c56)c(C(F)(F)F)cc34)CC2)n1` (stereo partly drawn) [Example 272, 2-amino-7-fluoro-4-(8-fluoro-2-(((2R,7aS)-2-fluorotetrahydro-1H-pyrrolizin-7a(5H)-yl)methoxy)-4-(4-(3-methyl-1H-pyrazole-1-carbonyl)azepan-1-yl)-6-(trifluoromethyl)quinazolin-7-yl)benzo[b]thiophene-3-carbonitrile], the half-maximal inhibitory concentration (IC50) (usually the point on the concentration scale where inhibition reaches its midpoint) in assay [1] worked out at 4 nM; in assay [2], 3 nM; on KRas WT, 9 nM; on KRas G12S, 5 nM; on KRas G12C, 6 nM; in assay [3], 62 nM.
On to `CCc1c(F)ccc2cc(O)cc(-c3ncc4c(N(C)CCC(=O)N(C)C(C)=O)nc(OC[C@@]56CCCN5C[C@H](F)C6)nc4c3F)c12` [Example 273, N-acetyl-3-((7-(8-ethyl-7-fluoro-3-hydroxynaphthalen-1-yl)-8-fluoro-2-(((2R,7aS)-2-fluorotetrahydro-1H-pyrrolizin-7a(5H)-yl)methoxy)pyrido[4,3-d]pyrimidin-4-yl)(methyl)amino)-N-methylpropanamide], for which the concentration for half-maximal inhibition (IC50) in assay [1] is 745 nM; in assay [2] it was 494 nM; at KRas WT it was 58 nM; on KRas G12S it was 40 nM; on KRas G12C, 30 nM; in assay [3], 340 nM.
Turning to `CCc1c(F)ccc2cc(O)cc(-c3ncc4c(N5CCC(C(=O)N(C)C(C)=O)C5)nc(OC[C@@]56CCCN5C[C@H](F)C6)nc4c3F)c12` (stereo partly drawn) [Example 274, N-acetyl-1-(7-(8-ethyl-7-fluoro-3-hydroxynaphthalen-1-yl)-8-fluoro-2-(((2R,7aS)-2-fluorotetrahydro-1H-pyrrolizin-7a(5H)-yl)methoxy)pyrido[4,3-d]pyrimidin-4-yl)-N-methylpyrrolidine-3-carboxamide], the IC50 in assay [1] was determined as 326 nM; in assay [2], 662 nM; on KRas WT it was 51 nM; at KRas G12S it was 89 nM; on KRas G12C, 65 nM; in assay [3], 287 nM.
In the case of `CCc1c(F)ccc2cc(O)cc(-c3ncc4c(N5CCCCC(C(=O)N(C)C(C)=O)CC5)nc(OC[C@@]56CCCN5C[C@H](F)C6)nc4c3F)c12` (stereo partly drawn) [Example 275, N-acetyl-1-(7-(8-ethyl-7-fluoro-3-hydroxynaphthalen-1-yl)-8-fluoro-2-(((2R,7aS)-2-fluorotetrahydro-1H-pyrrolizin-7a(5H)-yl)methoxy)pyrido[4,3-d]pyrimidin-4-yl)-N-methylazocane-4-carboxamide], the IC50 amounted to 58 nM in assay [1]; 164 nM in assay [2]; 47 nM at KRas WT; 15 nM on KRas G12S; 52 nM on KRas G12C; 437 nM in assay [3].
Take `CCc1c(F)ccc2cc(O)cc(-c3ncc4c(N5CC(CC(=O)N(C)C(C)=O)C5)nc(OC[C@@]56CCCN5C[C@H](F)C6)nc4c3F)c12` [Example 276, N-acetyl-2-(1-(7-(8-ethyl-7-fluoro-3-hydroxynaphthalen-1-yl)-8-fluoro-2-(((2R,7aS)-2-fluorotetrahydro-1H-pyrrolizin-7a(5H)-yl)methoxy)pyrido[4,3-d]pyrimidin-4-yl)azetidin-3-yl)-N-methylacetamide]: the IC50 was 101 nM in assay [1]; 1480 nM in assay [2]; 148 nM at KRas WT; 68 nM on KRas G12S; 129 nM on KRas G12C; 1030 nM in assay [3].
For `CCc1c(F)ccc2cc(O)cc(-c3ncc4c(N5CC6CC(C(=O)N(C)C(C)=O)C6C5)nc(OC[C@@]56CCCN5C[C@H](F)C6)nc4c3F)c12` (stereo partly drawn) [Example 277, N-acetyl-3-(7-(8-ethyl-7-fluoro-3-hydroxynaphthalen-1-yl)-8-fluoro-2-(((2R,7aS)-2-fluorotetrahydro-1H-pyrrolizin-7a(5H)-yl)methoxy)pyrido[4,3-d]pyrimidin-4-yl)-N-methyl-3-azabicyclo[3.2.0]heptane-6-carboxamide], the IC50 worked out at 549 nM in assay [1]; 6510 nM in assay [2]; 357 nM at KRas WT; 539 nM on KRas G12S; 864 nM on KRas G12C; 2360 nM in assay [3].
For `CCc1c(F)ccc2cc(O)cc(-c3ncc4c(N5CC[C@H]6[C@@H](C5)[C@H]6C(=O)N(C)C(C)=O)nc(OC[C@@]56CCCN5C[C@H](F)C6)nc4c3F)c12` [Example 278, (1R,6S)-N-acetyl-3-(7-(8-ethyl-7-fluoro-3-hydroxynaphthalen-1-yl)-8-fluoro-2-(((2R,7aS)-2-fluorotetrahydro-1H-pyrrolizin-7a(5H)-yl)methoxy)pyrido[4,3-d]pyrimidin-4-yl)-N-methyl-3-azabicyclo[4.1.0]heptane-7-carboxamide], the IC50 in assay [1] came out at 292 nM; in assay [2] it was 1180 nM; at KRas WT, 41 nM; on KRas G12S, 48 nM; at KRas G12C it was 58 nM; in assay [3], 217 nM.
For `CCc1c(F)ccc2cc(O)cc(-c3ncc4c(N5CC6CC(C(=O)N(C)C(C)=O)CC6C5)nc(OC[C@@]56CCCN5C[C@H](F)C6)nc4c3F)c12` (stereo partly drawn) [Example 279, N-acetyl-2-(7-(8-ethyl-7-fluoro-3-hydroxynaphthalen-1-yl)-8-fluoro-2-(((2R,7aS)-2-fluorotetrahydro-1H-pyrrolizin-7a(5H)-yl)methoxy)pyrido[4,3-d]pyrimidin-4-yl)-N-methyloctahydrocyclopenta[c]pyrrole-5-carboxamide], the half-inhibitory concentration (IC50) in assay [1] worked out at 276 nM; in assay [2] it was 4900 nM; on KRas WT, 332 nM; on KRas G12S, 188 nM; at KRas G12C, 334 nM; in assay [3], 1690 nM.
For `CCc1c(F)ccc2cc(O)cc(-c3ncc4c(NCC5CC(C(=O)N(C)C(C)=O)C5)nc(OC[C@@]56CCCN5C[C@H](F)C6)nc4c3F)c12` (stereo partly drawn) [Example 280, N-acetyl-3-(((7-(8-ethyl-7-fluoro-3-hydroxynaphthalen-1-yl)-8-fluoro-2-(((2R,7aS)-2-fluorotetrahydro-1H-pyrrolizin-7a(5H)-yl)methoxy)pyrido[4,3-d]pyrimidin-4-yl)amino)methyl)-N-methylcyclobutane-1-carboxamide], the half-inhibitory concentration (IC50) stood at 107 nM in assay [1]; 428 nM in assay [2]; 9 nM at KRas WT; 14 nM on KRas G12S; 17 nM on KRas G12C; 102 nM in assay [3].
Take `CCc1c(F)ccc2cc(O)cc(-c3ncc4c(NC[C@@H]5C[C@H]5C(=O)N(C)C(C)=O)nc(OC[C@@]56CCCN5C[C@H](F)C6)nc4c3F)c12` [Example 281, trans-N-acetyl-2-(((7-(8-ethyl-7-fluoro-3-hydroxynaphthalen-1-yl)-8-fluoro-2-(((2R,7aS)-2-fluorotetrahydro-1H-pyrrolizin-7a(5H)-yl)methoxy)pyrido[4,3-d]pyrimidin-4-yl)amino)methyl)-N-methylcyclopropane-1-carboxamide]: the half-inhibitory concentration (IC50) in assay [1] was determined as 243 nM; in assay [2], 198 nM; at KRas WT it was 8 nM; on KRas G12S, 10 nM; at KRas G12C, 9 nM; in assay [3] it was 41 nM.
